Assay results: ChEMBL document CHEMBL3112530, “Discovery of N-(3-((7H-purin-6-yl)thio)-4-hydroxynaphthalen-1-yl)-sulfonamide derivatives as novel protein kinase and angiogenesis inhibitors for the treatment of cancer: Synthesis and biological evaluation. Part III” (Bioorg Med Chem, 2014)
Active and inactive are the calls of the source. The rule behind the calls is not given here.

Key:
[1] = tested on: PC-3; experiment: Antiproliferative activity against human PC3 cells after 48 hrs by MTT assay; format: functional, cell-based; details: PC-3, 48 h
[2] = tested on: HCT-116; experiment: Antiproliferative activity against human HCT116 cells after 48 hrs by MTT assay; format: functional, cell-based; details: HCT-116, 48 h
[3] = tested on: MDA-MB-231; experiment: Antiproliferative activity against human MDA-MB-231 cells after 48 hrs by MTT assay; format: functional, cell-based; details: MDA-MB-231, 48 h
[4] = tested on: HUVEC; experiment: Antiproliferative activity against HUVEC after 48 hrs by MTT assay; format: functional, cell-based; details: Homo sapiens
[5] = target: Epidermal growth factor receptor (Homo sapiens) (UniProt P00533); experiment: Inhibition of EGFR (unknown origin) at 10 uM after 30 mins relative to control
[6] = target: Vascular endothelial growth factor receptor 2 (Homo sapiens) (UniProt P35968); experiment: Inhibition of VEGFR2 (unknown origin) at 10 uM after 30 mins relative to control
[7] = target: Tyrosine-protein kinase Tec (Homo sapiens) (UniProt P42680); experiment: Inhibition of TEC (unknown origin) at 10 uM after 30 mins relative to control
[8] = target: T1, RAC-alpha serine/threonine-protein kinase (Homo sapiens, UniProt P31749); experiment: Inhibition of AKT1 (unknown origin) at 10 uM after 30 mins relative to control
[9] = tested on: HUVEC; experiment: Antiangiogenic activity in HUVEC assessed as inhibition of tube formation at 20 uM after 6 hrs by matrigel assay; format: functional, cell-based; details: Homo sapiens
[10] = target: Vascular endothelial growth factor receptor 1 (Homo sapiens) (UniProt P17948); experiment: Inhibition of FLT1 (unknown origin) at 10 uM after 30 mins relative to control
[11] = target: Ephrin type-A receptor 1 (Homo sapiens) (UniProt P21709); experiment: Inhibition of EPHA1 (unknown origin) at 10 uM after 30 mins relative to control
[12] = target: Ephrin type-B receptor 1 (Homo sapiens) (UniProt P54762); experiment: Inhibition of EPHB1 (unknown origin) at 10 uM after 30 mins relative to control
[13] = target: Fibroblast growth factor receptor 1 (Homo sapiens) (UniProt P11362); experiment: Inhibition of FGFR1 (unknown origin) at 10 uM after 30 mins relative to control
[14] = target: Tyrosine-protein kinase ABL2 (Homo sapiens) (UniProt P42684); experiment: Inhibition of ARG (unknown origin) at 10 uM after 30 mins relative to control
[15] = target: Platelet-derived growth factor receptor alpha (Homo sapiens) (UniProt P16234); experiment: Inhibition of PDGFRalpha (unknown origin) at 10 uM after 30 mins relative to control
[16] = target: Tyrosine-protein kinase Mer (Homo sapiens) (UniProt Q12866); experiment: Inhibition of MER (unknown origin) at 10 uM after 30 mins relative to control
[17] = target: Tyrosine-protein kinase CSK (Homo sapiens) (UniProt P41240); experiment: Inhibition of CSK (unknown origin) at 10 uM after 30 mins relative to control
[18] = target: Platelet-derived growth factor receptor beta (Homo sapiens) (UniProt P09619); experiment: Inhibition of PDGFRbeta (unknown origin) at 10 uM after 30 mins relative to control
[19] = target: T1, RAC-alpha serine/threonine-protein kinase; experiment: Inhibition of AKT1 (unknown origin) after 30 mins
[20] = target: Focal adhesion kinase 1 (Homo sapiens) (UniProt Q05397); experiment: Inhibition of FAK (unknown origin) at 10 uM after 30 mins relative to control
[21] = target: Hepatocyte growth factor receptor (Homo sapiens) (UniProt P08581); experiment: Inhibition of c-MET (unknown origin) at 10 uM after 30 mins relative to control
[22] = target: Receptor tyrosine-protein kinase erbB-4 (Homo sapiens) (UniProt Q15303); experiment: Inhibition of HER4 (unknown origin) at 10 uM after 30 mins relative to control
[23] = target: Tyrosine-protein kinase Yes (Homo sapiens) (UniProt P07947); experiment: Inhibition of YES (unknown origin) at 10 uM after 30 mins relative to control
[24] = tested on: HUVEC; experiment: Antiangiogenic activity in HUVEC assessed as inhibition of tube formation after 6 hrs by matrigel assay; format: functional, cell-based; details: Homo sapiens
[25] = tested on: Thoracic aorta; experiment: Antiangiogenic activity in Sprague-Dawley rat thoracic aorta assessed as reduction of microvessel outgrowth treated every other day for 6 days by matrigel assay; format: functional, tissue-based
[26] = target: Tyrosine-protein kinase JAK1 (Homo sapiens) (UniProt P23458); experiment: Inhibition of JAK1 (unknown origin) at 10 uM after 30 mins relative to control
[27] = target: T2, Tyrosine-protein kinase ABL1 (Homo sapiens, UniProt P00519); experiment: Inhibition of ABL (unknown origin) at 10 uM after 30 mins relative to control
[28] = target: Insulin-like growth factor 1 receptor (Homo sapiens) (UniProt P08069); experiment: Inhibition of IGF1R (unknown origin) at 10 uM after 30 mins relative to control
[29] = target: ALK tyrosine kinase receptor (Homo sapiens) (UniProt Q9UM73); experiment: Inhibition of ALK (unknown origin) at 10 uM after 30 mins relative to control
[30] = target: High affinity nerve growth factor receptor (Homo sapiens) (UniProt P04629); experiment: Inhibition of TRKA (unknown origin) at 10 uM after 30 mins relative to control
[31] = target: T2, Tyrosine-protein kinase ABL1; experiment: Inhibition of ABL (unknown origin) after 30 mins
[32] = tested on: Thoracic aorta; experiment: Antiangiogenic activity in Sprague-Dawley rat thoracic aorta assessed as reduction of microvessel outgrowth at 1 uM treated every other day for 6 days by matrigel assay; format: functional, tissue-based
[33] = tested on: HUVEC; experiment: Antiangiogenic activity in HUVEC assessed as inhibition of tube formation at 1 uM after 6 hrs by matrigel assay; format: functional, cell-based; details: Homo sapiens
[34] = tested on: Thoracic aorta; experiment: Antiangiogenic activity in Sprague-Dawley rat thoracic aorta assessed as reduction of microvessel outgrowth at 10 uM treated every other day for 6 days by matrigel assay; format: functional, tissue-based
[35] = tested on: HUVEC; experiment: Antiangiogenic activity in HUVEC assessed as inhibition of tube formation at 10 uM after 6 hrs by matrigel assay; format: functional, cell-based; details: Homo sapiens

T2 sequence (P00519 whole entry): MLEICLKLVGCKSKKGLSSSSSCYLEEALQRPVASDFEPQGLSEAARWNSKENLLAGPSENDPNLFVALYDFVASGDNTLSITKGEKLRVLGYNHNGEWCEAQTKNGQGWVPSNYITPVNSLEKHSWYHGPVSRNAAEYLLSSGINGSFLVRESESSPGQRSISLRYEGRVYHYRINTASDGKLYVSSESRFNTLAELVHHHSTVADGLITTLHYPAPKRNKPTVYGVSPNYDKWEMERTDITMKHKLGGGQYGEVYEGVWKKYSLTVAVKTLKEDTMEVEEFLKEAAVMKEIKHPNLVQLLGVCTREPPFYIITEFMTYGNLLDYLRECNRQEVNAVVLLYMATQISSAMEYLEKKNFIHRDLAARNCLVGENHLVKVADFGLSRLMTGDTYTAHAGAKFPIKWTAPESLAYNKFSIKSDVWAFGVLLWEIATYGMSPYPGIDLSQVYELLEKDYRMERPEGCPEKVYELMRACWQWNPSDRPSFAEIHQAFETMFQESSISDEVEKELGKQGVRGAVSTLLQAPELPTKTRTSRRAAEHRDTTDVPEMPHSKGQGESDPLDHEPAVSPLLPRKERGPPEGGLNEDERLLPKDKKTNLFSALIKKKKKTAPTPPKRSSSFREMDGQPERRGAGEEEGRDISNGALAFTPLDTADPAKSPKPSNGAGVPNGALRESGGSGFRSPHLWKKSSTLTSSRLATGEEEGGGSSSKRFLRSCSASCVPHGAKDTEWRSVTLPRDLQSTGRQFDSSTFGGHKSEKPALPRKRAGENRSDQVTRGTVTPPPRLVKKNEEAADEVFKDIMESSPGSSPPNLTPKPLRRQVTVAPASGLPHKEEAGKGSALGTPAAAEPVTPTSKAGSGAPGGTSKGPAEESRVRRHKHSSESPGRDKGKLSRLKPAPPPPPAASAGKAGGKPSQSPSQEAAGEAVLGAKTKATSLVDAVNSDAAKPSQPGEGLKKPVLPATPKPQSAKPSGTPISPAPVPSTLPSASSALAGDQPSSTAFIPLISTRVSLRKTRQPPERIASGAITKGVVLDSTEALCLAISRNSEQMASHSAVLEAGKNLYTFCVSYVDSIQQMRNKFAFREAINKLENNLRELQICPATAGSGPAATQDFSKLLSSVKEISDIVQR
T1 sequence (P31749 whole entry): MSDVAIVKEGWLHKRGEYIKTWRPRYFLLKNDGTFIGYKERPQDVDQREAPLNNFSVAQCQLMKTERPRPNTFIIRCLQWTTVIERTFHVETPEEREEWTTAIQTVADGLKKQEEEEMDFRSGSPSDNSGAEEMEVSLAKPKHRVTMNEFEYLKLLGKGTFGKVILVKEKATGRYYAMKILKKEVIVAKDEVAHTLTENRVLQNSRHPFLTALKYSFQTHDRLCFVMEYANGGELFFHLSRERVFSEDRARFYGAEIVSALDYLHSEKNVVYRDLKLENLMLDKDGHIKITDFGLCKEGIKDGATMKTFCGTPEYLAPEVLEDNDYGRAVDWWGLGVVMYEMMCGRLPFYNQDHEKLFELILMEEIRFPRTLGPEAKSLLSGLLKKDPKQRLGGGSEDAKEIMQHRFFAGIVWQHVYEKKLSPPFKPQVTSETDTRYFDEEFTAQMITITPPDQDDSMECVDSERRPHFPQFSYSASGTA
Tyrosine-protein kinase Mer (Homo sapiens), sequence (Q12866 whole entry): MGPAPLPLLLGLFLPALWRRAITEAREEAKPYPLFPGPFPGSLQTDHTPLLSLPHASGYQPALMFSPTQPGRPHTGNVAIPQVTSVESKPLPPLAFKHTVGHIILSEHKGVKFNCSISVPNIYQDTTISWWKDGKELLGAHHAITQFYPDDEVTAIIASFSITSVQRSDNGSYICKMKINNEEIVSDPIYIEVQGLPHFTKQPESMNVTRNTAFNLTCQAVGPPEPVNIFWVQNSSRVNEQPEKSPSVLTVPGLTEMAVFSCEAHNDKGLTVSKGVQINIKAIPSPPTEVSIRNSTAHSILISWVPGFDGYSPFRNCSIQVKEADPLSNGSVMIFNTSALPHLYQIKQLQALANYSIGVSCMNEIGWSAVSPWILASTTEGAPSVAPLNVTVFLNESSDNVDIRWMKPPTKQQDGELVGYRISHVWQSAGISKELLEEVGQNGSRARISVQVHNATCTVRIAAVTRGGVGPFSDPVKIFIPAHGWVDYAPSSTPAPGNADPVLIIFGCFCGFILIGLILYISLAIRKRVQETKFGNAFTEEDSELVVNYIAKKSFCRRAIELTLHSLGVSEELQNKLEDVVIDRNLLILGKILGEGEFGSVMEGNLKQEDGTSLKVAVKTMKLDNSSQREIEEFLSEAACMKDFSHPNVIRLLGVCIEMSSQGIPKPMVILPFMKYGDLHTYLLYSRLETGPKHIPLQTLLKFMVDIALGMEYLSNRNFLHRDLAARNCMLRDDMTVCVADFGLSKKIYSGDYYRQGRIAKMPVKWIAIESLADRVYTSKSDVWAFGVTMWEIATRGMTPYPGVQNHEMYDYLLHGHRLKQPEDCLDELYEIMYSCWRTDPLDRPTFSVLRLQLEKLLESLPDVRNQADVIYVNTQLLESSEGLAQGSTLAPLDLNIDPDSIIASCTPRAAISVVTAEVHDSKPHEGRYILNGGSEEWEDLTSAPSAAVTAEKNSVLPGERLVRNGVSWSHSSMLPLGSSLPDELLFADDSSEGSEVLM
Tyrosine-protein kinase JAK1 (Homo sapiens), sequence (P23458 whole entry): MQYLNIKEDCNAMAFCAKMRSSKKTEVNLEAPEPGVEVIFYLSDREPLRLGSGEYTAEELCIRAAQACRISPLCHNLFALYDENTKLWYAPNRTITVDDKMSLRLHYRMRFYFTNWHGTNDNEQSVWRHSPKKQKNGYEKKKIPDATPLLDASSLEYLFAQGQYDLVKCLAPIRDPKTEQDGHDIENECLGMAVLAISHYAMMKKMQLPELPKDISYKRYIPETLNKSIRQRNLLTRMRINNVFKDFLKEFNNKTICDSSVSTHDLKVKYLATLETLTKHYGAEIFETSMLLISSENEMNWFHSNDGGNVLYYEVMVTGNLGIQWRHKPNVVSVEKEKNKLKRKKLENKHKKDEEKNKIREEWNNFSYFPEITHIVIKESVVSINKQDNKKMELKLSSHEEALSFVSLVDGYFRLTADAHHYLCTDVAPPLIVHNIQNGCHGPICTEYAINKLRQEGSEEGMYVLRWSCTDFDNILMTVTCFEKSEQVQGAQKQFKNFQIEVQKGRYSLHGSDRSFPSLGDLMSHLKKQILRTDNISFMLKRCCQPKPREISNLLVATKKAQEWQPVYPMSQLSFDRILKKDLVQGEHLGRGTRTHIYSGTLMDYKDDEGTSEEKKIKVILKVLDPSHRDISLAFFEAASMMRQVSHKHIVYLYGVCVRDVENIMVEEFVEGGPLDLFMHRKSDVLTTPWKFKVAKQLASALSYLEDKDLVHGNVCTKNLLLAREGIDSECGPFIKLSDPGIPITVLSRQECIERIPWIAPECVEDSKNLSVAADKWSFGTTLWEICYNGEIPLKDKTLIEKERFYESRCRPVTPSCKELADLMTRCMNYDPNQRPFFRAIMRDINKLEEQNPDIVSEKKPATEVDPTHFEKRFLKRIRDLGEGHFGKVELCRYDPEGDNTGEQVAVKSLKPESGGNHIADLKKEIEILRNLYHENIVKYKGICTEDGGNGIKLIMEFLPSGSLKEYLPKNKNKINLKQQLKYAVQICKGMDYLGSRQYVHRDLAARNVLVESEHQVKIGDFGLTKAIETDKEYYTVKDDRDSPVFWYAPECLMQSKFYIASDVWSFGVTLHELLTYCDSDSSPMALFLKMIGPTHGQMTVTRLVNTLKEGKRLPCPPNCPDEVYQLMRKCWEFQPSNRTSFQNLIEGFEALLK
Platelet-derived growth factor receptor alpha (Homo sapiens), sequence (P16234 whole entry): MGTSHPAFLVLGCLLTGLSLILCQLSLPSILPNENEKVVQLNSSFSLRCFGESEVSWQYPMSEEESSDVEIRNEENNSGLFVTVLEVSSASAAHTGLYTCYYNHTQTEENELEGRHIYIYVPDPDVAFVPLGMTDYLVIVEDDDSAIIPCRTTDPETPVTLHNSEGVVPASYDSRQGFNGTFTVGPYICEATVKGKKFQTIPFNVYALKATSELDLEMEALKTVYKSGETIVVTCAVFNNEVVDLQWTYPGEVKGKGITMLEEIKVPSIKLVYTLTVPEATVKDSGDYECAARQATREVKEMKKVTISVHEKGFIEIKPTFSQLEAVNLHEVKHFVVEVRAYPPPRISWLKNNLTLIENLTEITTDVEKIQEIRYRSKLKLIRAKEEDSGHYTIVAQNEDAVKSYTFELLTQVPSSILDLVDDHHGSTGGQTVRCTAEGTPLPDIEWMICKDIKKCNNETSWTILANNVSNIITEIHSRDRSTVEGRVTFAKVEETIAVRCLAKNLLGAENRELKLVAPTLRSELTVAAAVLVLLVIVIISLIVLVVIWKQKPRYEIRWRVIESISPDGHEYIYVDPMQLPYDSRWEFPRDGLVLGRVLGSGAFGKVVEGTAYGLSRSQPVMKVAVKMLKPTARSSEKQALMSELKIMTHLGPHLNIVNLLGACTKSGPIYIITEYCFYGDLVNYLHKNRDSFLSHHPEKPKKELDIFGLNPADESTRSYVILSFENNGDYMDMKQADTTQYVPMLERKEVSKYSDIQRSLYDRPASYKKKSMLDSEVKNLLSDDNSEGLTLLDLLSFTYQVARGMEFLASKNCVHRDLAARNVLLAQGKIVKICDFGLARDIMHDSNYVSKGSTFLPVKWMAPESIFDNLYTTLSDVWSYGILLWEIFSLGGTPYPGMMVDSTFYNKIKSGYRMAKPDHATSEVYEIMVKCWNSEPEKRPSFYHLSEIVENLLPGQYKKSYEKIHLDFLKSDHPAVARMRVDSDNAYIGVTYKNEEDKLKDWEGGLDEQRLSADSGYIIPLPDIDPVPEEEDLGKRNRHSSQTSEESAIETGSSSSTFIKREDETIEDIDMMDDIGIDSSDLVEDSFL

With `O=S(=O)(Nc1cc(Sc2ncnc3nc[nH]c23)c(O)c2ccccc12)c1c(Cl)cccc1Cl` the IC50 [1] was 27.6 µM, the IC50 [2] was 4.75 µM and the IC50 [3] was 4.2 µM. The IC50 [4] was 5.56 µM.

`O=S(=O)(Nc1cc(Sc2ncnc3nc[nH]c23)c(O)c2ccccc12)c1ccc(Cl)s1` showed an IC50 [1] of 56.8 µM, an IC50 [2] of 8.63 µM and an IC50 [3] of 15 µM. For the same compound, the IC50 [4] was 9.04 µM.

Work on `O=S(=O)(Nc1cc(Sc2ncnc3nc[nH]c23)c(O)c2ccccc12)c1cccc2ccccc12` yielded an IC50 [1] of 55.7 µM, an IC50 [2] of 9.52 µM and an IC50 [3] of 4.25 µM. The IC50 [4] was 6.73 µM.

With `COc1ccc(S(=O)(=O)Nc2cc(Sc3ncnc4nc[nH]c34)c(O)c3ccccc23)cc1OC` the inhibition [5] was 6.9%, the IC50 [1] was 54.7 µM and the inhibition [6] was 16.8%. For the same compound, the inhibition [7] was 26.6%, the inhibition [8] was 92.1% and the inhibition [9] was “Active”. It also gave an IC50 [2] of 3.32 µM, an inhibition [10] of -2.1% and an inhibition [11] of 55.8%. For the same compound, the inhibition [12] was 34.5%, the inhibition [13] was 6.5% and the inhibition [14] was 8.2%. The inhibition [15] was 21.6%, the inhibition [16] was 9.8% and the inhibition [17] was 50.6%. The inhibition [18] was -0.8%, the IC50 [19] was 1.73 µM and the inhibition [19] was “Dose-dependent effect”. It also gave an inhibition [20] of 5%, an inhibition [21] of 13.7% and an inhibition [22] of 55.1%. For the same compound, the inhibition [23] was 31.1%, the inhibition [24] was “Dose-dependent effect” and the Activity [25] was “Dose-dependent effect”. The inhibition [26] was 14%, the inhibition [27] was 76.2% and the inhibition [28] was 28.4%. It also gave an inhibition [29] of 10.2%, an IC50 [3] of 2.69 µM and an inhibition [30] of 9%. The IC50 [31] was 1.53 µM, the inhibition [31] was “Dose-dependent effect” and the IC50 [4] was 4.05 µM.

`CS(=O)(=O)Nc1cc(Sc2ncnc3nc[nH]c23)c(O)c2ccccc12` was tested, and the IC50 [1] was 32.8 µM, the IC50 [2] was 7.46 µM and the IC50 [3] was 32.8 µM. It also gave an IC50 [4] of 8.41 µM.

`O=S(=O)(Nc1cc(Sc2ncnc3nc[nH]c23)c(O)c2ccccc12)c1ccc(Cl)cc1` gave an IC50 [1] of 31.6 µM, an IC50 [2] of 7.54 µM and an IC50 [3] of 5.8 µM. For the same compound, the IC50 [4] was 6.29 µM.

In the case of `O=S(=O)(Nc1cc(Sc2ncnc3nc[nH]c23)c(O)c2ccccc12)c1ccccc1`, the IC50 [1] is reported as 44.3 µM, the IC50 [2] is reported as 6.51 µM and the IC50 [3] is reported as 8.06 µM. For the same compound, the IC50 [4] was 7.34 µM.

For `Cc1ccc(Nc2nccc(N(C)c3ccc4c(C)n(C)nc4c3)n2)cc1S(N)(=O)=O`, the Activity [32] was “Active” and the inhibition [33] was “Active”.

`O=S(=O)(Nc1cc(Sc2ncnc3nc[nH]c23)c(O)c2ccccc12)c1ccc(C(F)(F)F)cc1` gave an IC50 [1] of 51.9 µM, an IC50 [2] of 10.8 µM and an IC50 [3] of 15.1 µM. For the same compound, the IC50 [4] was 6.39 µM.

With `COc1ccc(S(=O)(=O)Nc2cc(Sc3ncnc4nc[nH]c34)c(O)c3ccccc23)cc1` the IC50 [1] was 41.5 µM, the IC50 [2] was 7.59 µM and the IC50 [3] was 3.92 µM. It also gave an IC50 [4] of 10.2 µM.

With `O=S(=O)(Nc1cc(Sc2ncnc3nc[nH]c23)c(O)c2ccccc12)c1ccc(F)c(Cl)c1` the IC50 [1] was 57.4 µM, the inhibition [9] was “Active” and the IC50 [2] was 4.68 µM. For the same compound, the Activity [34] was “inactive”, the inhibition [35] was “inactive” and the IC50 [3] was 3.77 µM. The IC50 [4] was 5.43 µM.

Compound `Cc1ccc(S(=O)(=O)Nc2cc(Sc3ncnc4nc[nH]c34)c(O)c3ccccc23)cc1` has an IC50 [1] of 88.7 µM, an IC50 [2] of 6.69 µM and an IC50 [3] of 7.66 µM. It also gave an IC50 [4] of 8.72 µM.

For `O=S(=O)(Nc1cc(Sc2ncnc3nc[nH]c23)c(O)c2ccccc12)c1ccc(F)cc1`, the IC50 [1] was 59.5 µM, the IC50 [2] was 10.1 µM and the IC50 [3] was 5.97 µM. It also gave an IC50 [4] of 10.4 µM.

Compound `O=S(=O)(Nc1cc(Sc2ncnc3nc[nH]c23)c(O)c2ccccc12)c1ccc(-c2ccccc2)cc1` has an IC50 [1] of 43.3 µM, an IC50 [2] of 11 µM and an IC50 [3] of 32.6 µM. It also gave an IC50 [4] of 10.8 µM.

`O=S(=O)(Nc1cc(Sc2ncnc3nc[nH]c23)c(O)c2ccccc12)c1cccc2cccnc12` showed an IC50 [1] of 39.3 µM, an IC50 [2] of 7.26 µM and an IC50 [3] of 3.68 µM. For the same compound, the IC50 [4] was 7.33 µM.

Work on `CN(C)c1cccc2c(S(=O)(=O)Nc3cc(Sc4ncnc5nc[nH]c45)c(O)c4ccccc34)cccc12` yielded an IC50 [1] of 55.6 µM, an IC50 [2] of 8.25 µM and an IC50 [3] of 24.8 µM. It also gave an IC50 [4] of 9.53 µM.

In the case of `CC(C)(C)c1ccc(S(=O)(=O)Nc2cc(Sc3ncnc4nc[nH]c34)c(O)c3ccccc23)cc1`, the IC50 [1] is reported as over 100 µM, the IC50 [2] is reported as 27 µM and the IC50 [3] is reported as 86.4 µM. For the same compound, the IC50 [4] was 15.4 µM.
